Laboratory results published in patent US10337014B2, “Low molecular weight cyclic amine containing cationic lipids for oligonucleotide delivery” (SIRNA THERAPEUTICS, INC., priority 2010, dated 2019).

How the values were obtained:
[1] = Determination of cationic lipid levels in rat liver (LC/MS-MS); type: in vivo; settings: rats dosed with RDV, 0.5 mg/kg; compared with RDV containing DLinKC2DMA (Compound 12) or MC3 (Compound 13), also 0.5 mg/kg
Method: Liver tissue was weighed into 20-ml vials and homogenized in 9 v/w of water using a GenoGrinder 2000 (OPS Diagnostics, 1600 strokes/min, 5 min). A 50 μL aliquot of each tissue homogenate was mixed with 300 μL of extraction/protein precipitating solvent (50/50 acetonitrile/methanol containing 500 nM internal standard) and the plate was centrifuged to sediment precipitated protein. A volume of 200 μL of each supernatant was then transferred to separate wells of a 96-well plate and 10 μl samples were directly analyzed by LC/MS-MS.
Standards were prepared by spiking known amounts of a methanol stock solution of compound into untreated rat liver homogenate (9 vol water/weight liver). Aliquots (50 μL) each standard/liver homogenate was mixed with 300 μL of extraction/protein precipitating solvent (50/50 acetonitrile/methanol containing 500 nM internal standard) and the plate was centrifuged to sediment precipitated protein. A volume of 200 μL of each supernatant was transferred to separate wells of a 96-well plate and 10 μl of each standard was directly analyzed by LC/MS-MS.
Absolute quantification versus standards prepared and extracted from liver homogenate was performed using an Aria LX-2 HPLC system (Thermo Scientific) coupled to an API 4000 triple quadrupole mass spectrometer (Applied Biosystems). […]

[2] = test system: mRNA transcript for the ApoB gene; test: Rat in vivo evaluation of efficacy (ApoB siRNA LNP, liver ApoB mRNA by RT-PCR); settings: RDV (LNP) with ApoB siRNA, tail vein, Sprague-Dawley female rats, 24 hours after dosing; compared with RDV containing DLinKC2DMA (Compound 12)
Method: (§1) Six hours post dose, food is removed from the cages. Animal necropsy is performed 24 hours after LNP dosing. Rats are anesthetized under isoflurane for 5 minutes, then maintained under anesthesia by placing them in nose cones continuing the delivery of isoflurane until ex-sanguination is completed. Blood is collected from the vena cava using a 23 gauge butterfly venipuncture set and aliquoted to serum separator vacutainers for serum chemistry analysis. Punches of the excised caudate liver lobe are taken and placed in RNALater (Ambion) for mRNA analysis. Preserved liver tissue was homogenized and total RNA isolated using a Qiagen bead mill and the Qiagen miRNA-Easy RNA isolation kit following the manufacturer's instructions. Liver ApoB mRNA levels were determined by quantitative RT-PCR. Message was amplified from purified RNA utilizing a rat ApoB commercial probe set (Applied Biosystems Cat #RN01499054_m1). The PCR reaction was performed on an ABI 7500 instrument with a 96-well Fast Block. The ApoB mRNA level is normalized to the housekeeping PPIB (NM 011149) mRNA. PPIB mRNA levels were determined by RT-PCR using a commercial probe set (Applied Biosytems Cat. No. Mm00478295_m1). Results are expressed as a ratio of ApoB mRNA/PPIB mRNA. All mRNA data is expressed relative to the PBS control dose. […]

[3] = test system: mRNA transcript for the firefly (Photinus pyralis) luciferase gene; test: Mouse in vivo evaluation of efficacy (luciferase siRNA LNP, liver luminescence); settings: RDV (LNP) with Luc siRNA, tail vein, 0.1 to 0.5 mg/kg siRNA, imaged 48 hours post dose; compared with RDV containing Compound A
Method: LNPs utilizing Compound 4, in the nominal compositions described immediately above, were evaluated for in vivo efficacy. The siRNA targets the mRNA transcript for the firefly (Photinus pyralis) luciferase gene (Accession #M15077). […] The in vivo luciferase model employs a transgenic mouse in which the firefly luciferase coding sequence is present in all cells. ROSA26-LoxP-Stop-LoxP-Luc (LSL-Luc) transgenic mice licensed from the Dana Farber Cancer Institute are induced to express the Luciferase gene by first removing the LSL sequence with a recombinant Ad-Cre virus (Vector Biolabs). Due to the organo-tropic nature of the virus, expression is limited to the liver when delivered via tail vein injection. Luciferase expression levels in liver are quantitated by measuring light output, using an IVIS imager (Xenogen) following administration of the luciferin substrate (Caliper Life Sciences). Pre-dose luminescence levels are measured prior to administration of the RDVs. Luciferin in PBS (15 mg/mL) is intraperitoneally (IP) injected in a volume of 150 μL. After a four minute incubation period mice are anesthetized with isoflurane and placed in the IVIS imager. The RDVs (containing siRNA) in PBS vehicle were tail vein injected n a volume of 0.2 mL. […] In vivo efficacy results are expressed as % inhibition of luminescence relative to pre-dose luminescence levels. […]

[4] = Rat in vivo evaluation of toxicity (serum ALT and AST); settings: RDV (LNP) with ApoB siRNA, tail vein, Sprague-Dawley female rats, 24 hours after dosing; compared with RDV containing DLinKC2DMA (Compound 12)
Method: as §1

For CCCCC/C=C\C/C=C\CCCCCCCCO[C@@H]1CN(C)C[C@H]1OCCCCCCCC (relative stereo) [Compound 4, trans-1-Methyl-3-[((9Z,12Z)-octadeca-9,12-dienyl)oxy]-4-octyloxy-pyrrolidine], the “cationic lipid levels in rat liver” value [1] was “much lower”, the “in vivo efficacy (liver ApoB mRNA/PPIB mRNA relative to PBS control)” value [2] was “Modestly decreased efficacy” and the “in vivo efficacy (% inhibition of luminescence relative to pre-dose luminescence levels)” value [3] was “Greater efficacy”. The “tolerability (increases in serum alanine amino transferase and aspartate amino transferase)” value [4] was “significantly improved tolerability”.
